Results as given in a melting point compilation (Tetko et al.; mined from patent text by program, amines drawn as free bases though some values may be those of a salt).

Row | SMILES | melting point
1 | CCCCCCC(C)(C)c1cc(OC)c(C2=C[C@@H]3CC[C@@]2(C(=O)O)C3(C)C)c(OC)c1 | 101 to 102 °C
2 | CCC(=O)NNC(=O)C(=O)NC1CC(C)(C)NC(C)(C)C1 | 221 to 225 °C
3 | c1cncc(-c2ccnc3nccn23)c1 | 162 to 164 °C
4 | CNC(=O)c1cccc(NC(=O)Nc2ccccc2)c1 | 209 to 210 °C
5 | Cn1nc(C(F)(F)F)c(C(=O)CC#N)c1Cl | 103 to 105 °C
6 | O=C(CCCC1CCCCC1)N1C(=O)OC[C@@H]1Cc1ccccc1 | 69 to 70 °C
7 | NNN=CN(N)CC(=O)O | 148 to 149 °C
8 | CC(C)C(NC(=O)OCc1csc(N2CCCC2)n1)C(=O)NN(C(=O)OCc1cncs1)C(Cc1ccccc1)CC(O)CCc1ccccc1 (stereo unspecified) | 165 to 167 °C
9 | COCCC1(C(=O)N[C@@H](Cc2ccc(NC(=O)c3cc(C#N)ccc3Cl)cc2)C(=O)OC)CCCC1 | 172 to 175 °C
10 | COc1cc2c(cc1O)C(C)(C)CC2 | 43.5 to 44.5 °C
11 | O=C(CC1CSCCC1=O)c1ccccc1 (stereo unspecified) | 102 to 104 °C
12 | CCOC(=O)C(C(=O)C(C)C)C(CC(=O)C(C)C)c1ccc(F)cc1 (stereo unspecified) | 57 to 60 °C
13 | O=S(Cc1ccccn1)c1nc2cc3c(cc2[nH]1)CCC3 (stereo unspecified) | 173 to 174 °C
14 | Cn1cc(C=CC(=O)NCN2CCCC2)c([N+](=O)[O-])n1 | 180 to 183 °C
15 | O=C1NC(=O)C(CCCCc2ccc(O)cc2)O1 (stereo unspecified) | 151 to 152 °C
16 | Cc1cnc(C(N)=O)cn1 | 204 to 206 °C
17 | COC(=O)CCCOc1ccc(CC(C)NCC(O)c2cc3ccccc3o2)cc1 (stereo unspecified) | 63 to 70 °C
18 | O=C1Cc2cc(Br)ccc2Oc2cc(O)cc(O)c21 | 112 to 117 °C
19 | CCC(CO)(CO)CBr | 78 to 80 °C
20 | O=c1[nH]c2cc(Cl)cc(Cl)c2c(-c2cc(Cl)ccc2O)c1O | 297 to 299 °C
21 | CCOC(=O)C1CN(C(=O)C(C)(C)C)CCC1=O (stereo unspecified) | 46 to 50 °C

Row | SMILES | melting point
22 | CCOC(=O)CC1NCCN(CCc2c[nH]c3ccccc23)C1=O (stereo unspecified) | 80 °C
23 | O=C(O)C1C2CCC(=O)C21 (stereo unspecified) | 110 to 115 °C
24 | CC(C)NC(=O)CN1CCN(CC2CSC3=C(O2)c2ccccc2C(=O)C3=O)CC1 (stereo unspecified) | 85 to 87 °C
25 | CCCCCCCCCCCCCCCCCCNC(=O)NCCCCCCCCN | 120 to 145 °C
26 | CN(C)c1ccccc1SCC(N)=NO | 133 °C
27 | O=C1CCC2=C(CCc3cccc(F)c32)N1 | 199 °C
28 | CN1CCC(C2(O)c3cc(Cl)ccc3CC2(C)C)CC1 (stereo unspecified) | 181 to 182 °C
29 | CC(C)(C)OC(=O)COc1cc2cc(C(C)(C)O)sc2c(Cl)c1Cl | 137 to 138 °C
30 | NNC1=NCCc2ccccc21 | 55 to 57 °C
31 | COc1cc(Cc2nc(NCC(C)C)c3c(C)c(C#N)sc3n2)cc(OC)c1OC | 129 to 131 °C
32 | Cn1nnnc1SCc1ccccn1 | 78 to 81 °C
33 | COc1cc2[nH]c(=O)c3c(c2cc1OC)CCN(CCN1CCCCC1)C3 | 185 to 188 °C
34 | NC(=O)NC1CCCCCC1 | 203 to 204 °C
35 | CN1CCN(CCNc2ncnc3c2sc2nc(N4CCCC4)c4c(c23)CC(C)(C)OC4)CC1 | 97.5 to 98.8 °C
36 | O=C(O)C[C@H]1C[C@@H](CCCCCCc2ccc(Cl)cc2Cl)OC1=O (relative stereo) | 57 to 59 °C
37 | NC(=O)/C=C1/c2cc(F)ccc2CC1O[N+](=O)[O-] (stereo unspecified) | 162 to 163 °C
38 | CCC(C(=O)C(=O)O)c1ccccc1 (stereo unspecified) | 62 to 68 °C
39 | CN=C(NS(=O)(=O)N1CCCCC1)C1=NN(c2ccc(Cl)cc2)C(c2ccccc2)C1 (stereo unspecified) | 141 to 144 °C
40 | O/N=C(\Cl)c1cccc(Cl)c1 | 58 to 60 °C
41 | O=C(O)C=Cc1cc(N2CCNCC2)ccc1[N+](=O)[O-] | 229 to 237 °C

Results, then the compound that gave them:

Row | melting point | SMILES
42 | 188 °C | COc1ccc(Cc2c(F)cccc2F)c(N(CC(N)=O)S(=O)(=O)c2ccc(OC)c(OC)c2)c1
43 | 153 to 155 °C | O=C(O)CCC(=O)c1ccc(-c2cccc(F)c2)cc1
44 | 223 to 226 °C | CC(=O)Oc1ccc(-n2c3c(c(C(C)=O)c2-c2ccccc2)-c2ccccc2CC3)cc1C(=O)O
45 | 170 to 171 °C | COC(=O)c1cc(-c2ccc(OC)c(F)c2)nn(Cc2ccc(Cl)cc2)c1=O
46 | 108 to 109 °C | FC(F)(F)c1cccc(CN2C(=NCCCn3ccnc3)c3cccc4cccc2c34)c1
47 | 45 to 47 °C | CC(=O)Nc1c(Cl)cnn1-c1c(F)c(F)c(C(F)(F)F)c(F)c1F
48 | 120 to 121 °C | Cc1cccc(C)c1NCCN(C)CC(O)COc1cccc2[nH]ncc12 (stereo unspecified)
49 | 240 to 245 °C | COc1cc2c(cc1OC)[C@@H]1CN(C)CC[C@@H]1N=C2c1ccc(NC(=O)c2ccccc2)cc1 (relative stereo)
50 | 161 to 163 °C | O=C1C(c2ccc3c(c2)OCO3)c2ccccc2N1Cc1ccc(Cl)cc1 (stereo unspecified)
51 | 122 to 124 °C | COc1cccc(Sc2ccnc(Nc3cccc(CCO)c3)n2)c1
52 | 131 °C | O=C(O)c1cc(Oc2ncc(C(F)(F)F)cc2Cl)ccc1[N+](=O)[O-]
53 | 108 to 109 °C | Cc1oc(-c2ccccc2)nc1COc1ccc(Cn2cc(CCC(=O)O)c(OCc3ccccc3)n2)cc1
54 | 103 to 104 °C | COC(=O)CCc1cnoc1-c1ccc(-c2ccccc2)cc1
55 | 95 °C | CCCC1CCC(c2cc(F)c(C(F)(F)Oc3ccc(-c4cc(F)c(C(F)(F)F)c(F)c4)c(F)c3)c(F)c2)OC1 (stereo unspecified)
56 | 171 to 182 °C | CC(C)C[C@@H](C(=O)N1CCN(C(c2ccc(F)cc2)c2ccc(F)cc2)CC1)N(C)C1CCCCC1
57 | 147 to 153 °C | COC(=O)c1ccccc1S(=O)(=O)NC(=O)Nc1n[nH]c(SC)n1
58 | 44 to 45 °C | CC[C@H](C)COc1ccc(O)cc1
59 | 160 to 165 °C | CCOC(=O)c1cn(CCc2cccc(F)c2)c2cc(C3CC3)nn2c1=O
60 | 156 to 157 °C | COc1ccc(-c2ccc(Cl)nn2)c(O)c1
61 | 127 to 128 °C | CCCCc1csc2ccc3[nH]c4c(c3c12)CN(Cc1ccccc1)CC4

Row | melting point | SMILES
62 | 82 to 83 °C | COc1c(C)c(C)c(OC)c(Cn2ccnc2)c1C
63 | 156 to 157 °C | N#Cc1c(-c2ccccc2)c(-c2ccccc2)nn(CCCO)c1=O
64 | 63 to 65 °C | O=C(c1ccc(Cl)cc1)c1ccc(CSC(F)(F)F)cc1
65 | 192 to 194 °C | COC(=O)C(NS(=O)(=O)c1ccc(-c2ccc(NC(=O)c3oc4cccc(C5COC(C)(C)O5)c4c3C)cc2)cc1)C(C)C (stereo unspecified)
66 | 135 °C | COC(=O)[C@@H]1C[C@H](Oc2cc(-c3nc(C(C)C)cs3)nc3c(C)c(OC)ccc23)C[C@H]1C(=O)O
67 | 261 to 262 °C | CN1CCN(c2cccc3c2C[C@H](NC(=O)c2ccc(-c4ccc(O)cc4)cc2)CC3)CC1
68 | 202 °C | Cc1cccc(-c2cc(C(F)(F)F)n3cnc(C#N)c3n2)c1
69 | 124 to 126 °C | CCOc1ccc2c(c1)CCc1c(C#N)cccc1S2
70 | 184 to 186 °C | Cc1ccc2cccc(OCc3c(Cl)ccc(C=O)c3Cl)c2n1
71 | 221 to 224 °C | CC1(C)CCC(C)(C)c2cc(C(=O)c3ccc(C(O)=NO)cc3)c(OCc3ccc(Br)cc3)cc21
72 | 141 to 142 °C | Clc1ccc(C(Br)C(Br)c2ncon2)cc1 (stereo unspecified)
73 | 122 to 125 °C | Cc1ccc(NC(=O)N2CCN(CCc3ccc(-c4cccc(N)n4)cc3)CC2)cc1C
74 | 89 to 92 °C | O=C(C=Cc1ccc(F)cc1)c1ccc(C(F)(F)F)cc1
75 | 154 to 155 °C | CCOC(=O)/C=C/c1cn(-c2ccccc2)nc1OCc1ccc(OCc2nc(-c3ccccc3)oc2C)cc1
76 | 118 to 120 °C | C[C@@H](NC(=O)Nc1ccc(C(C)(C)C)cc1)c1ccc(NS(C)(=O)=O)c(C#C[Si](C)(C)C)c1
77 | 165 °C | COC(=O)COc1ccccc1Oc1cc(NC(=O)CC(O)(O)C(F)(F)F)c(F)cc1Cl
78 | 67 to 68 °C | CCOC(=O)C(C)c1ccc(C(=O)c2ccc(Cl)cc2)n1C (stereo unspecified)
79 | 89 to 91 °C | CC(C)(C)[Si](C)(C)OC(CCCNCCc1ccccc1)COc1ccc2c(=O)cc(-c3ccccc3)oc2c1 (stereo unspecified)
80 | 127 to 128 °C | CC(C)(C)c1cc(Nc2cccc(OCC(=O)O)c2)cc(C(C)(C)C)c1O
81 | 88.5 to 90.5 °C | Cn1c2ccccc2c(=O)c2ccc(Cl)n21

Row | melting point | SMILES
82 | 123 °C | CN(C)c1ccc(C2OC(C)(C)N=C2c2ccccc2)cc1 (stereo unspecified)
83 | 181 to 183 °C | COc1cc(OC)c2c(=O)[nH]c(-c3cc(C)c(OCCN4CCCC4)c(C)c3)nc2c1
84 | 177 to 178 °C | O=C(Nc1cc(-c2nc(-c3ccco3)no2)ccc1Cl)Oc1ccccc1
85 | 158 to 160 °C | Cc1c(CC(=O)O)c2cc(O)ccc2n1C(=O)c1cccc(Cl)c1
86 | 98 to 99 °C | C=CCOc1ccc(C(=O)C=Cc2cccc(OC)c2OC)cc1
87 | 197 to 198 °C | C[C@@H](n1cnc2cc(N(C)C)c(F)cc2c1=O)[C@](O)(Cn1cncn1)c1ccc(F)cc1F
88 | 219 to 220 °C | CC(C)(/C=C/c1ccc(C(=O)O)cc1)c1ccc2c(c1)C(C)(C)CCC2(C)C
89 | 222 to 224 °C | O=C(Nc1nnn(CC2CC2)n1)C1c2ccccc2Oc2ccccc21
90 | 199 to 200 °C | CN1CCN(c2cccc3c2C[C@H](NC(=O)c2ccc(OS(C)(=O)=O)cc2)CC3)CC1
91 | 252 °C | N=C(NO)c1cnn2c(C(F)(F)F)cc(-c3ccc(C(F)(F)F)cc3)nc12
92 | 159 to 161 °C | CCN(CC)c1nc(-c2ccc(OC)c(OC)c2)nc2sc(C#N)c(C)c12
93 | 68 to 70 °C | COC(=O)CC1CC(c2cccc(C3(c4ccc(OC(F)F)cc4)N=C(N)N(C)C3=O)c2)C1 (stereo unspecified)
94 | 213 to 215 °C | CCCCc1nc(Cl)c(COC)n1Cc1ccc2oc(-c3ccccc3-c3nnn[nH]3)c(Br)c2c1
95 | 108 to 109 °C | CCCCNC(=O)N1CC(Oc2cccc(C(F)(F)F)c2)C1
96 | 154 to 155 °C | COc1ccc(-c2nnn(-c3ccc(C(F)(F)F)cc3F)c2C)cc1
97 | 115 to 116 °C | O=C(O)CCc1cc(OCC2CC2)nn1Cc1ccc(C(F)(F)F)cc1Cl
98 | 86 to 87 °C | Cc1cc(C#Cc2ccc(F)cc2)nc(Oc2cc(C(F)(F)F)nn2C)c1
99 | 170 to 171 °C | CC(=O)c1ccc2c(c1)CC(=O)N2CC(F)(F)F
100 | 112 to 114 °C | Cc1ccc(S(=O)(=O)N2CCc3ccccc3C(Oc3cccc(C(F)(F)F)c3)C2)cc1 (stereo unspecified)
101 | 88 to 93 °C | COC(=O)CCc1cc2cc(Cl)ccc2n1S(=O)(=O)c1cccc2ccccc12
